Data from US8748485B2, “Compound and medical use thereof” (Ono Pharmaceuticals Co., Ltd., priority 2010, dated 2014).

Experiments:
[1] = Kinetic study in dogs (oral administration, plasma levodopa); settings: dog, in vivo, po, 3 mg/kg; for Cmax/C6 hr (ratio of maximum plasma concentration and plasma concentration at 6 hours after oral administration, levodopa): male, beagle
Source text: The relationship between the blood concentration of levodopa and side effects in patients who take levodopa has been gradually elucidated. […] In order to reduce the number of doses of levodopa and avoid side effects such as dyskinesia and wearing-off in patients who take levodopa, it is necessary to maintain the blood concentration of levodopa within a therapeutic range as long as possible.
These levodopa prodrugs are prodrugs containing an ester bond, and therefore, it is considered that among a number of enzymes, carboxyesterase plays the most important role in the process of producing levodopa by metabolizing the compound after the compound is administered in vivo. Therefore, as an animal species to be used for performing a kinetic study, dogs in which the organ distribution of carboxyesterase is most similar to that of humans were selected as subjects for evaluation.
The thus obtained drug solution was administered by gavage through a gastric tube into the stomach of dogs (male beagle dogs) which were fasted from the day before the administration. At 15 and 30 minutes, and 1, 2, 4, 6, and 8 hours after administration of the drug solution, 1 mL of blood was collected from a cephalic vein with a heparinized syringe. Immediately after the collection, the collected blood was centrifuged in a desktop centrifuge at 14500 rpm for 45 seconds. Then, acetonitrile containing 0.1125% formic acid was added to the thus obtained plasma in an amount as twice as large as the volume of the plasma, followed by stirring, and then, the resulting sample was stored at −20° C. until measurement.
The sample was thawed on the measurement day, followed by stirring and centrifugation at 13000 rpm for 3 minutes (at 4° C.). The resulting supernatant was filtered and the filtrate was analyzed by LC/MS/MS. The analysis was performed by LC/MS/MS under the following conditions.
Measurement Apparatus: API-5000 (manufactured by Applied Biosystems, Inc.)
Analytical column: CAPCELL PAK CR (1:4) (4.6 mm, I.D.×250 mm, 5 μm)
Analytical column temperature: 40° C.
Mobile phase: A: 5 mM ammonium formate (pH 3.9), B: acetonitrile (A/B=17/3)
Detection (levodopa): m/z (precursor): 196.19, m/z (product): 134.99
DP (Declustering Potential): −60
CE (Collision Energy): −25
CXP (Collision Cell Exit Potential): −17
Incidentally, the numerical value in the column which indicates the dose expressed in terms of levodopa refers to a dose equivalent to that of levodopa.

p53R2 = assay: Mutagenicity assay using mammalian cells (NESMAGET method); format: cell-based
Method: In the treatment of Parkinson's disease and/or Parkinson's syndrome, there is a possibility that a levodopa prodrug is continued to be taken over a long period of time of several years to several decades. Therefore, an evaluation was carried out as to whether or not the compound of the present invention has mutagenicity by a mutagenicity assay using mammalian cells.
A mutagenicity assay using mammalian cells was carried out as a commissioning test to be undertaken by Nissin Foods Holdings Co., Ltd. The present method also called NESMAGET method is a method in which the expression of p53R2 which is a DNA repair gene is detected by luciferase activity, and the specific experimental technique is described in JP-A-2005-000024 and Japanese Patent No. 4243716. In the determination as to whether or not the result of this test was positive, the luciferase activity of p53R2 in the case of a vehicle control (0.3% dimethylsulfoxide) was taken as 100%, and a concentration at which a relative luciferase activity exceeded 200% was determined to be “concentration at which mutagenicity was determined to be positive”.

| AUC (area under the blood concentration-time curve of levodopa) [1] [μg^+ hr/mL] | Cmax/C6 hr (ratio of maximum plasma concentration and plasma concentration at 6 hours after oral administration, levodopa) [1] | SMILES | Mutagenicity assay (NESMAGET) Concentration at which mutagenicity was determined to be positive (p53R2; concentration at which relative luciferase activity of p53R2 exceeded 200% (vehicle control 0.3% dimethylsulfoxide = 100%)) [µg/mL] | determination of mutagenicity (p53R2; positive = relative luciferase activity of p53R2 exceeded 200%, compound of the present invention up to 200 μg/mL) |
| --- | --- | --- | --- | --- |
| 0.22 | 7.4 | COc1ccccc1C(=O)OCC(C)(C)C(=O)Oc1ccc(C[C@H](N)C(=O)O)cc1OC(=O)C(C)(C)COC(=O)c1ccccc1OC.Cl [Reference Example 16] | 84 | positive for mutagenicity |
| 0.31 | 24.2 | N[C@@H](Cc1ccc(OC(=O)c2ccccc2C(F)(F)F)c(OC(=O)c2ccccc2C(F)(F)F)c1)C(=O)O [Reference Example 25, (2S)-2-Amino-3-(3,4-bis((2-(trifluoromethyl)benzoyl)oxy)phenyl)propanoic acid] | – | – |
| 0.12 | 2.9 | CCC(C)(CC)C(=O)Oc1ccc(C[C@H](N)C(=O)O)cc1OC(=O)C(C)(CC)CC.Cl [Reference Example 18, (2S)-2-Amino-3-(3,4-bis((2-ethyl-2-methylbutanoyl)oxy)phenyl)propanoic acid hydrochloride] | – | – |
| 0.42 | 12.6 | COC(=O)[C@@H](N)Cc1ccc(OC(=O)CC(C)(C)C)c(OC(=O)CC(C)(C)C)c1 [Compound X, 3,3-dimethyl-butyric acid 4-((S)-2-amino-2-methoxycarbonyl-ethyl)-2-(3,3-dimethyl-butyryloxy)phenyl ester] | – | – |
| 0.45 | 18.0 | Cl.N[C@@H](Cc1ccc(OC(=O)C2CC2)c(OC(=O)C2CC2)c1)C(=O)O [Reference Example 26, (2S)-2-Amino-3-(3,4-bis((cyclopropanecarbonyl)oxy)phenyl)propanoic acid hydrochloride] | – | – |
| 0.003 | 2.0 | CCC(CC)(OC(=O)c1ccccc1)C(=O)Oc1ccc(C[C@H](N)C(=O)O)cc1OC(=O)C(CC)(CC)OC(=O)c1ccccc1.Cl [Reference Example 33, (2S)-2-Amino-3-(3,4-bis((2-(benzoyloxy)-2-ethylbutanoyl)oxy)phenyl)propanoic acid hydrochloride] | – | – |
| 0.77 | 1039.6 | C[C@@H](OC(=O)c1ccccc1)C(=O)Oc1ccc(C[C@H](N)C(=O)O)cc1OC(=O)[C@@H](C)OC(=O)c1ccccc1.Cl [Reference Example 35, (2S)-2-Amino-3-(3,4-bis(((R)-2-(benzoyloxy)propanoyl)oxy)phenyl)propanoic acid hydrochloride] | – | – |
| 0.70 | 221.2 | CC(C)(C)CCC(=O)Oc1ccc(C[C@H](N)C(=O)O)cc1OC(=O)CCC(C)(C)C.Cl [Reference Example 19, (2S)-2-Amino-3-(3,4-bis((4,4-dimethylpentanoyl)oxy)phenyl)propanoic acid hydrochloride] | – | – |
| 0.84 | 58.7 | CC1(C(=O)Oc2ccc(C[C@H](N)C(=O)O)cc2OC(=O)C2(C)CC2)CC1.Cl [Reference Example 27, (2S)-2-Amino-3-(3,4-bis((1-methylcyclopropanecarbonyl)oxy)phenyl)propanoic acid hydrochloride] | – | – |
| 0.27 | 8.8 | CCC(C)(CC)CC(=O)Oc1ccc(C[C@H](N)C(=O)O)cc1OC(=O)CC(C)(CC)CC.Cl [Reference Example 21, (2S)-2-Amino-3-(3,4-bis((3-ethyl-3-methylpentanoyl)oxy)phenyl)propanoic acid hydrochloride] | – | – |
| 0.10 | 16.1 | C[C@H](OC(=O)c1ccccc1)C(=O)Oc1ccc(C[C@H](N)C(=O)O)cc1OC(=O)[C@H](C)OC(=O)c1ccccc1.Cl [Reference Example 34, (2S)-2-Amino-3-(3,4-bis(((S)-2-(benzoyloxy)propanoyl)oxy)phenyl)propanoic acid hydrochloride] | – | – |
| 0.59 | 41.5 | Cc1ccccc1C(=O)Oc1ccc(C[C@H](N)C(=O)O)cc1OC(=O)c1ccccc1C.Cl [Reference Example 23, (2S)-2-Amino-3-(3,4-bis((2-methylbenzoyl)oxy)phenyl)propanoic acid hydrochloride] | – | – |
| 0.28 | 6.6 | CC(C)C(CC(=O)Oc1ccc(C[C@H](N)C(=O)O)cc1OC(=O)CC(C(C)C)C(C)C)C(C)C.Cl [Reference Example 22, (2S)-2-Amino-3-(3,4-bis((3-isopropyl-4-methylpentanoyl)oxy)phenyl)propanoic acid hydrochloride] | – | – |

| SMILES | AUC (area under the blood concentration-time curve of levodopa) [1] [μg^+ hr/mL] | Cmax/C6 hr (ratio of maximum plasma concentration and plasma concentration at 6 hours after oral administration, levodopa) [1] | Mutagenicity assay (NESMAGET) Concentration at which mutagenicity was determined to be positive (p53R2; concentration at which relative luciferase activity of p53R2 exceeded 200% (vehicle control 0.3% dimethylsulfoxide = 100%)) [µg/mL] | determination of mutagenicity (p53R2; positive = relative luciferase activity of p53R2 exceeded 200%, compound of the present invention up to 200 μg/mL) |
| --- | --- | --- | --- | --- |
| CC1(CC(=O)Oc2ccc(C[C@H](N)C(=O)O)cc2OC(=O)CC2(C)CCCC2)CCCC1.Cl [Reference Example 31, (2S)-2-Amino-3-(3,4-bis(2-(1-methylcyclopentyl)acetoxy)phenyl)propanoic acid hydrochloride] | 0.42 | 18.7 | – | – |
| CC(=O)OC(C)(C)C(=O)Oc1ccc(C[C@H](N)C(=O)O)cc1OC(=O)C(C)(C)OC(C)=O.Cl [Reference Example 32, (2S)-2-Amino-3-(3,4-bis((2-acetoxy-2-methylpropanoyl)oxy)phenyl)propanoic acid hydrochloride] | 0.53 | 40.7 | – | – |
| Cl.N[C@@H](Cc1ccc(OC(=O)CC2CCCCC2)c(OC(=O)CC2CCCCC2)c1)C(=O)O [Reference Example 29, (2S)-2-Amino-3-(3,4-bis(2-cyclohexylacetoxy)phenyl)propanoic acid hydrochloride] | 0.59 | 98.5 | – | – |
| Cl.N[C@@H](Cc1ccc(OC(=O)CC2CCCC2)c(OC(=O)CC2CCCC2)c1)C(=O)O [Reference Example 28, (2S)-2-Amino-3-(3,4-bis(2-cyclopentylacetoxy)phenyl)propanoic acid hydrochloride] | 0.68 | 304.4 | – | – |
| CC1(CC(=O)Oc2ccc(C[C@H](N)C(=O)O)cc2OC(=O)CC2(C)CCCCC2)CCCCC1.Cl [Reference Example 30, (2S)-2-Amino-3-(3,4-bis(2-(1-methylcyclohexyl)acetoxy)phenyl)propanoic acid hydrochloride] | 0.36 | 12.8 | – | – |
